Data set [1] addresses influenza neuraminidase (N2) (Influenza A virus, UniProt P06820). Put plainly: biochemical. The format is biochemical, influenza virus Type A.
The subject of the next data set is HA. Particulars: cited from earlier work.
For data set [2] the following is noted: cited from earlier work.
Data set [3] has as its target neuraminidase from the H1N9 strain of influenza (Influenza A virus, UniProt P03472). The experiment in a line: biochemical.
In data set [4] the target is Influenza NA Type B B/Lee (Influenza B virus, UniProt P03474). Put plainly: Inhibition of influenza neuraminidase (B/Lee). The format is biochemical.
The next data set can be described thus: Oral bioavailability. Format: in vivo.

Turning to `CCC(CC)Nc1cc(C(=O)O)ccc1N1C(=O)CCC1(CO)CCO` (stereo not shown) [Example 18, 1-[4-Carboxy-2-(1-ethylpropylamino)phenyl]-5-hydroxyethyl-5-hydroxymethyl-pyrrolidin-2-one], the IC50 (commonly the concentration that gives 50% inhibition) in data set [1] stood at 184 µM.
As to `CCC(CC)CNc1cc(C(=O)O)ccc1N1C(=O)CCC1(CO)CO` [Example 11, 1-{4-Carboxy-2-[3-pentyl)methylaminolphenyl}-5,5-bis-(hydroxymethyl)pyrrolidin-2-one.], the IC50 in data set [1] is 3.5 µM. Compared with the last compound, the IC50 is about 53-fold lower.
`CCC(C)C(=O)Nc1cc(C(=O)O)ccc1N1C(=O)CCC1(CN)CO` (stereo not shown) [Example 17, 5-Aminomethyl-1-{[4-carboxy-2-(1-methylpropyl)carbonylamino]phenyl}-5-hydroxymethylpyrrolidin-2-one] showed an IC50 in data set [1] of 6 µM.
With `CC(=O)N[C@H]1[C@H]([C@H](O)[C@H](O)CO)OC(C(=O)O)=C[C@@H]1O` [DANA, 2-deoxy-2,3-didehydro-N-acetylneuraminic acid], the Inhibition in vitro result in the data set on HA was “inhibit HA in vitro”. Further, the Activity in vivo entry in data set [2] is “inactive in vivo”.
As for `CCC(=O)Nc1cc(C(=O)O)ccc1N1C(=O)CCC1(CO)CO` [Example 14, 1-[4-Carboxy-2-(ethylcarbonylamino)phenyl]-5,5-bis(hydroxymethyl)pyrrolidin-2-one], the IC50 in data set [1] was found to be 1.5 µM.
`O=C(O)c1ccc(N2C(=O)CCC2(CO)CO)cc1` [Example 5, 1-(4-Carboxyphenyl)-5,5-bis-(hydroxymethyl)pyrrolidin-2-one] showed a 50% inhibitory concentration (IC50) in data set [3] of 700 µM.
Take `O=C(O)c1ccc(N2CCCC2=O)cc1` [Example 1, 1-(4-Carboxyphenyl)pyrrolidin-2-one]: the melting point (as a rule, the temperature of the solid-liquid transition) was in the range of 244 to 246 °C. The same compound showed an IC50 in data set [3] greater than 7000 µM.
Take `CCC(CC)Nc1cc(C(=O)O)ccc1N1CCCC1=O` [Example 7, 1-[4-Carboxy-2-(3-pentylamino)phenyl]pyrrolidin-2-one]: the IC50 in data set [3] stood at 220 µM.
For `N=C(N)Nc1cc(C(=O)O)ccc1N1C(=O)CCC1(CO)CO` [Example 6, 1-{2-{[(Amino)(imino)methyl]amino}-4-carboxyphenyl}-5,5-bis-(hydroxymethyl)-pyrrolidin-2-one], in data set [3], the IC50 came to 5 µM.
As to `CCC(CC)C(=O)Nc1cc(C(=O)O)ccc1N1C(=O)CCC1(CO)CO` [Example 16], the IC50 in data set [1] was found to be 0.82 µM.
On to `CCCC(CCC)Nc1cc(C(=O)O)ccc1N1C(=O)CCC1(CO)CO` [Example 10, 1-[4-Carboxy-2-(4-heptylamino)phenyl]-5,5-bis-(hydroxymethyl)pyrrolidin-2-one], for which the values for the IC50 in data set [1] and in data set [3] were 8.1 µM and 5.5 µM, respectively.
`CCCNc1cc(C(=O)O)ccc1N1C(=O)CCC1(CO)CO` [Example 12] yielded an IC50 in data set [1] of 15.5 µM. This lies in the double-digit micromolar range.
As to `CCC(CC)Nc1cc(C(=O)O)ccc1N1C(=O)CCC1(CN)CO` (stereo not shown) [Compound B], in data set [1], the “Effectiveness relative to example 8 for the inhibition of influenza neuraminidase (N2)” value is “approximately twice as effective as example 8” and the IC50 was 0.04 µM. It took 49 µM to reach half-maximal inhibition in data set [4] (IC50).
Regarding `NCC1CCC(=O)N1c1ccc(C(=O)O)cc1N=C(N)N` (stereo not shown) [Example 4, 1-1-{2-{[(Amino)(imino)methyl]amino}-4-carboxyphenyl}-5-(aminomethyl)pyrrolidin-2-one], the IC50 in data set [3] worked out at 2600 µM.
As to `CCCC(CC)Nc1cc(C(=O)O)ccc1N1C(=O)CCC1(CO)CO` (stereo not shown) [Example 9, 1-[4-Carboxy-2-(3-hexylamino)phenyl]-5,5-bis-(hydroxymethyl)pyrrolidin-2-one], in data set [3], inhibition was half-maximal at 116 µM (IC50).
In turn, `CCC(C)C(=O)Nc1cc(C(=O)O)ccc1N1C(=O)CCC1(CO)CO` (stereo not shown) [Example 15, 1-{[4-Carboxy-2-(1-methylpropyl)carbonylamino]pheny}-5,5-bis(hydroxymethyl)-pyrrolidin-2-one] showed an IC50 in data set [1] of 0.18 µM.
Turning to `CCC(CC)Nc1cc(C(=O)O)ccc1N1C(=O)CCC1(CO)CO` [Example 8, 1-[4-Carboxy-2-(3-pentylamino)phenyl]-5,5-bis-(hydroxymethyl)pyrrolidin-2-one], the values for the IC50 in data set [1], in data set [4] and in data set [3] were 0.071 µM, 93 µM and 0.048 µM, respectively. The Oral bioavailability result in “Oral bioavailability” is recorded as “orally bioavailable”.

Source of the values: patent publication US6509359B1, “Pyrrolidin-2-one compounds and their use as neuraminidase inhibitors” (priority 1997, dated 2003).
